Data from PMC6273913, “New α-Methylene-γ-Butyrolactone Derivatives as Potential Fungicidal Agents: Design, Synthesis and Antifungal Activities” (Molecules, 2016).
Like-named read-outs stand apart in the source and are kept apart here.

Legend:
[1] = system: C. lagenarium; experiment: Spore germination assay, fungicidal activity against C. lagenarium; type: cell-based, Colletotrichum lagenarium; conditions: Colletotrichum orbiculare
Protocol: (§1) The fungal pathogens C. lagenarium and B. cinerea was provided by the Agricultural Culture Collection of China (Yangling, Shaanxi, China). C. lagenarium was cultured for 2 weeks at 25 ± 1 °C on potato dextrose agar (PDA) while B. cinerea was cultured at 20 °C on the same medium after being retrieved from the storage tube. Plates were flooded with sterile distilled water, and then conidia were scraped with a glass rod. Mycelial debris was removed by filtration. The spores were harvested and suspended in sterile distilled water containing 0.1% (v/v) Tween 20. The concentration of the spore suspension was adjusted to 1.0 × 10^6 spores/mL with sterilized distilled water following.
(§2) The tested samples (10.0 mg) dissolved in acetone (0.1 mL) were diluted with sterile distilled water to prepare 10.0 mL stock solution, which was further diluted to prepare test solutions in which the final concentration of acetone was <1% (v/v). A series of concentrations of tested samples and one control (1% acetone with sterile distilled water) were separately tested for spore germination of C. lagenarium or B. cinerea. The samples were inoculated with spore suspension of C. lagenarium or B. cinerea containing 1.0 × 10^6 spores/mL. Aliquots of 10 μL of prepared spore suspension were placed on separate glass slides in triplicate. Slides containing the spores were incubated in a moisture chamber at 25 °C for 6~8 h. Each slide was then observed under the microscope for spore germination. Spores were considered to have germinated if the length of the germ tube was at least half the length of the spore. Afterward, spore germination was stopped by applying a drop of lactophenol-cotton blue to the inoculation sites on plates. The numbers of generated spores were counted under a microscope (Olympus BX61, Tokyo, Japan), and the percentage of germinated spores was calculated. Chlorothalonil was used as the positive control.

[2] = system: B. cinerea; experiment: Spore germination assay, fungicidal activity against B. cinerea; type: cell-based, Botrytis cinerea; conditions: Botrytis cinerea, in vitro, n = 3
Protocol: as §1, §2

[3] = system: HepG2 cell line; experiment: Cytotoxic activity against human tumor cells line (HepG2); type: cell-based
[4] = Table 1, from IC50 in μM, read-out: pIC50, C. lagenarium (converted)
[5] = Table 6, read-out: IC50 (μM) (against C. lagenarium)
[6] = in vitro, spore germination, n = 3, read-out: IC50, C. lagenarium
[7] = Table 2, fungicidal activity against C. lagenarium used for QSAR, read-out: pIC50 (converted)
[8] = Table 4, experimental, C. lagenarium, read-out: Exp. pIC50 (converted)

With `C=C1CC(c2cccc(O)c2)OC1=O` (stereo not shown) [Compound 6, 4-(3-Hydroxyphenyl)-2-methylenebutyrolactone] the IC50 [1, 4] was 117 µM, the IC50 [1, 5] was 117 µM and the IC50 [1, 6] was 117 µM. For the same compound, the IC50 [2] was 140 µM, the IC50 [3] was 17.9 µM and the melting point was 78 to 79 °C.

Work on `C=C1CC(c2cccc(OC(=O)c3cccc(Cl)c3)c2)OC1=O` (stereo not shown) [Compound 6a, 4-[3-(3-Chlorobenzoyloxy)phenyl]-2-methylenebutyrolactone] yielded an IC50 [1, 4] of 7.67 µM, an IC50 [1, 7] of 7.67 µM and an IC50 [1, 8] of 7.67 µM. It also gave an IC50 [1, 5] of 7.68 µM, an IC50 [1, 6] of 7.68 µM and an IC50 [2] of 23.3 µM. For the same compound, the IC50 [3] was 30.2 µM and the melting point was 205.7 to 206.4 °C.

`C=C1CC(c2cccc(OC(=O)c3cccc(Br)c3)c2)OC1=O` (stereo not shown) [Compound 6d, 4-[3-(3-Bromobenzoyloxy)phenyl]-2-methylenebutyrolactone] gave an IC50 [1, 4] of 8.17 µM, an IC50 [1, 7] of 8.17 µM and an IC50 [1, 8] of 8.17 µM. The IC50 [1, 5] was 8.17 µM, the IC50 [1, 6] was 8.17 µM and the IC50 [2] was 26 µM. The IC50 [3] was 20.9 µM and the melting point was 178.6 to 178.9 °C.

With `C=C1CC(c2cccc(OC(=O)c3ccccc3)c2)OC1=O` (stereo not shown) [Compound 6f, 4-(3-Benzoyloxyphenyl)-2-methylenebutyrolactone] the IC50 [1, 4] was 73.1 µM, the IC50 [1, 7] was 73.1 µM and the IC50 [1, 8] was 73.1 µM. It also gave an IC50 [1, 5] of 73.1 µM, an IC50 [1, 6] of 73.1 µM and an IC50 [2] of 102 µM. For the same compound, the IC50 [3] was 18.5 µM and the melting point was 204.5 to 204.8 °C.

For `C=C1CC(c2cccc(OC(=O)c3ccccc3C)c2)OC1=O` (stereo not shown) [Compound 6g, 4-[3-(2-Methylbenzoyloxy)phenyl]-2-methylenebutyrolactone], the IC50 [1, 4] was 159 µM, the IC50 [1, 7] was 159 µM and the IC50 [1, 8] was 159 µM. It also gave an IC50 [1, 5] of 159 µM, an IC50 [1, 6] of 159 µM and an IC50 [2] of 180 µM. It also gave an IC50 [3] of 22 µM and a melting point of 178.3 to 178.9 °C.

`C=C1CC(c2cccc(OC(=O)c3ccc(OC)cc3)c2)OC1=O` (stereo not shown) [Compound 6l, 4-[3-(4-Methoxybenzoyloxy)phenyl]-2-methylenebutyrolactone] gave an IC50 [1, 4] of 154 µM, an IC50 [1, 7] of 154 µM and an IC50 [1, 8] of 154 µM. For the same compound, the IC50 [1, 5] was 154 µM, the IC50 [1, 6] was 154 µM and the IC50 [2] was 179 µM. It also gave an IC50 [3] of 58.6 µM and a melting point of 182.6 to 183.3 °C.
